In experiment [1] the test system is ZCCHC24. As to the kind of experiment: cells. The format is cell-based. Particulars: Homo sapiens; HiBiT tag-inserted cells, 24 hours; read-out: EC50 concentration for the maximal increase in the ZCCHC24 expression. The procedure:
1 × 10^4 HiBiT tag-inserted cells were seeded in a 96-well plate. […] After 24 hours, the medium was discarded, and 12.5 µL PBS, 12.5 µL Lytic Buffer from the HiBiT kit (Promega), 0.5 µL substrate, and 0.25 µL LgBiT were added. After 10 minutes of reaction at room temperature, luminescence was measured using ARVO X3 (Perkin Elmer).

The test system of another experiment is MDAMB231. As to the kind of experiment: cells. Format: cell-based. Particulars: Homo sapiens, MDA-MB-231; MDAMB231, 48 hours, Cell Titer Glo; read-out: IC50 for maximal cell survival inhibition. As for the experimental part:
2 × 10^3 HiBiT tag-inserted cells were seeded in a 96-well plate. […] After 48 hours, 20 µL of Cell Titer Glo (Promega) was added. After 30 minutes of reaction at 37°C, the […] was measured using ARVO X3 (Perkin Elmer).

The next experiment concerns ZEB1. As to the kind of experiment: qPCR analysis on JQ1-treated MDAMB231. Particulars: MDAMB231, 100 nM JQ1, 24 hours. The format is cell-based, human.
The next experiment has as its system MDAMB231 cells. The format is cell-based, human. Particulars: 100 nM JQ1, 1 µM PD407824 or both, 24 hours, CD44/NRP1 staining. The procedure:
2 × 10^5 MDAMB231 cells were seeded in a 6-well plate. […] Twenty-four hours later, cells were collected, stained with CD44-PE (IM7, Biolegend) and NRP1-APC (FAB3870A, R&D), and subjected to FACS analysis using FACS Calibur (BD).

The test system of experiment [2] is ZCCHC24. In words: Compound screening using HiBiT tag knock-in cells (ZCCHC24 expression reporter). The format is cell-based, human. Particulars: LOPAC compounds at 1 µM for 24 hours; HiBiT tag-inserted MDAMB231 reporter cells. The procedure: HiBiT tagged-MDAMB231 cells with were produced using the procedure below. First, crRNA (*14 (SEQ ID NO: 14) in Table 1) (IDT) was resuspended in the Nuclease-Free Duplex buffer (IDT) to a final concentration of 100 µM, and incubated at 95°C for 5 minutes together with the same amount of tracrRNA (IDT). The oligo complex was then slowly cooled down to room temperature and incubated with ALT-R Cas9 Nuclease V3 (61 µM) (Integrated DNA Technologies, IA, USA) for 20 minutes at room temperature to form the Cas9 complex. Next, a single-stranded DNA oligo (*15 (SEQ ID NO: 15) in Table 1) (comprising the HiBiT sequence and a sequence complementary to the sequence of the C-terminal region of ZCCHC24) and Cas9 complex were co-transfected into MDAMB231 cells by an electroporation method using the NEPA21 super electroporator ([…]). After single cell cloning, cells inserted with the HiBiT tag were collected.
The compound screening procedure is as follows. HiBiT tag-inserted cells were plated at 1 × 10^4 cells in a 96-well plate, cultured for 24 hours, and then reacted with a low molecular compound library (LOPAC; Sigma Aldrich) at 1 µM (final concentration) for 24 hours. After the culture medium was discarded, cells were incubated with 12.5 µL PBS, 12.5 µL lysis buffer (Promega), 0.5 µL substrate (Promega), and 0.25 µL LgBiT (Promega) for 10 minutes at room temperature in the dark. The luminescence intensity was measured using ARVO X3 (Perkin Elmer).
As mentioned above, ZCCHC24 is strongly expressed in cancer stem cell-like cells, and maintains the expression of genes important for maintaining cancer stemness by directly binding to the mRNA of these genes. Therefore, in order to clarify the expression induction mechanism of ZCCHC24, labeled reporter cells were created by inserting a HiBiT tag into the C terminus of ZCCHC24, 1280 types of compounds in LOPAC (Sigma Aldrich) were administered to these reporter cells at a concentration of 1 µM for 24 hours, and compound screening was performed (Figure 17A). […]

The structures appear in SMILES notation.

In the case of `Cc1sc2c(c1C)C(c1ccc(Cl)cc1)=NC(CC(=O)OC(C)(C)C)c1nnc(C)n1-2` (stereo not shown) [JQ1], the EC50 with ZCCHC24 [1] was roughly 0.05 µM. Also, the IC50 in the experiment with MDAMB231 is roughly 0.1 µM. In addition, the “expression of ZEB1” value in the experiment with ZEB1 is reported as “dramatically increased”. Further, in the experiment with MDAMB231 cells, the “cancer stem cell-like population” value is on record as “no decrease”.

As to `CC[C@@]1(O)C(=O)OCc2c1cc1n(c2=O)Cc2cc3ccccc3nc2-1` [camptothecin], the “Z score (ZCCHC24 expression)” value with ZCCHC24 [2] is listed as “up-regulators (compounds with Z score > 3.0 above were defined as up-regulators)”.

For the compound `CC(=O)[C@]1(O)Cc2c(O)c3c(c(O)c2[C@@H](O[C@H]2C[C@H](N)[C@H](O)[C@H](C)O2)C1)C(=O)c1ccccc1C3=O` [idarubicin], the “Z score (ZCCHC24 expression)” value in the experiment with ZCCHC24 [2] is recorded as “up-regulators (compounds with Z score > 3.0 above were defined as up-regulators)”.

Turning to `COc1cc2c[n+](C)c3c4cc5c(cc4ccc3c2cc1OC)OCO5` [nitidine], in the experiment on ZCCHC24 [2], the “Z score (ZCCHC24 expression)” value is “up-regulators (compounds with Z score > 3.0 above were defined as up-regulators)”.
